Results published in patent US12187709B2 (Genentech, Inc., priority 2021, dated 2025).

Key:
[1] = molecular target: Cbl-b (Homo sapiens (Human), UniProt Q13191); test: Cbl-b LCK Ub TR-FRET assay (Cbl-b Lck HTRF); type: biochemical; conditions: for IC50: Cbl-b LCK Ub TR-FRET; for fold-selectivity (Cbl-b over C-cbl): ratio C-cbl Lck HTRF IC50 / Cbl-b Lck HTRF IC50
Outline: (§1)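 After the ubiquitination reaction, detection mixture was added and plates incubated 20 min at room temperature before reading. IC50 values were calculated with wells lacking LCK as the low control and DMSO as the high control.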

[2] = molecular target: Human Cbl-b (residues 40-426) (Homo sapiens (Human), UniProt Q13191); test: Cbl-b SPR assay; type: binding; conditions: for Fold of selectivity: C-cbl SPR Kd vs Cbl-b SPR Kd; for Kd: SPR, 20° C.
Outline: (§2)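 Binding is measured by surface plasmon resonance against both isoforms, with double referencing and 1:1 kinetic fitting. Dissociation time is tuned to 4-5 half-lives.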

[3] = molecular target: c-Cbl (residues 47-435) (Homo sapiens (Human), UniProt P22681); test: c-Cbl SPR assay; type: binding; conditions: 20° C.
Outline: as §2

[4] = molecular target: c-Cbl (Homo sapiens (Human), UniProt P22681); test: C-Cbl LCK Ub TR-FRET assay (C-cbl Lck HTRF); type: biochemical
Outline: as §1

Chain of Human Cbl-b (residues 40-426) (Q13191 40-426): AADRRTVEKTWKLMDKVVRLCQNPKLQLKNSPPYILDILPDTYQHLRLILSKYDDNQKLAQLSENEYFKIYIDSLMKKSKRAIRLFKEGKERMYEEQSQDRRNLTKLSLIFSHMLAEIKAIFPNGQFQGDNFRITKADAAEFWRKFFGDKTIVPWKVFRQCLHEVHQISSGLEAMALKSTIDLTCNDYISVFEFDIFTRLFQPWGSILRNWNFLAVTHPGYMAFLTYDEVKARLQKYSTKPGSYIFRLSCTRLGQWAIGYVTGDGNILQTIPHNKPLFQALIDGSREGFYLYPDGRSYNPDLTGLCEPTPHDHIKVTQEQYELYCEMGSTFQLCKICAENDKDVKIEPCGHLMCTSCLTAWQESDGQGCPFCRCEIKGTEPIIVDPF
Chain of Cbl-b (Q13191 40-426): as above
Chain of c-Cbl (P22681 47-435): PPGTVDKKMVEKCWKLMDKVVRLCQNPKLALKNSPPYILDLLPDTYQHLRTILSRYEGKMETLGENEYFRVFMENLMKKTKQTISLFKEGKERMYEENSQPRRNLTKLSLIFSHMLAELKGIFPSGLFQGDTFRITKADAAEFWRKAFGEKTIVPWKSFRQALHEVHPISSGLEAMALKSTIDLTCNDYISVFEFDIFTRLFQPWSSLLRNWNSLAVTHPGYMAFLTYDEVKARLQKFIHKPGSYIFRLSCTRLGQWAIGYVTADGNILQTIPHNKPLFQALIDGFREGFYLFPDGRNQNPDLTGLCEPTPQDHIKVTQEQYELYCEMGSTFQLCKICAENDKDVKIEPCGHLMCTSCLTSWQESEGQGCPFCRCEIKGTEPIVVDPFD
Chain of c-Cbl (residues 47-435) (P22681 47-435): as above

IC50 [1] [nM]	fold-selectivity (Cbl-b over C-cbl) [1] [x]	Fold of selectivity [2] [×]	Kd [2] [nM]	Kd [3] [nM]	IC50 [4] [nM]	Compound
11	1.0	15	0.95	15	22	Cn1cnnc1C1(c2cc(NCCC#N)nc(N3Cc4c(cc(CNC5(C)CCC5)cc4C(F)(F)F)C3=O)c2)CC2(COC2)C1 [Compound 187, 3-((4-(6-(4-methyl-4H-1,2,4-triazol-3-yl)-2-oxaspiro[3.3]heptan-6-yl)-6-(6-(((1-methylcyclobutyl)amino)methyl)-1-oxo-4-(trifluoromethyl)isoindolin-2-yl)pyridin-2-yl)amino)propanenitrile]
16	11	22	4.7	100	180	Cn1cnnc1C1(c2cc(NC3CCCC3)nc(N3Cc4c(cc(CNC5(C)CCC5)cc4C(F)(F)F)C3=O)c2)CC2(COC2)C1 [Compound 188, 2-(6-(cyclopentylamino)-4-(6-(4-methyl-4H-1,2,4-triazol-3-yl)-2-oxaspiro[3.3]heptna-6-yl)pyridin-2-yl)-6-(((1-methylcyclobutyl)amino)methyl)-4-(trifluoromethyl)isoindolin-1-one]
7.2	0.56	3.3	0.3	1	4.1	CCOc1cc(N2Cc3c(cc(CNC4(C)CCC4)cc3C(F)(F)F)C2=O)cc([C@]2(c3nncn3C)C[C@H](C)C2)c1 [Compound 189, 2-(3-ethoxy-5-((1r,3r)-3-methyl-1-(4-methyl-4H-1,2,4-triazol-3-yl)cyclobutyl)phenyl)-6-(((1-methylcyclobutyl)amino)methyl)-4-(trifluoromethyl)isoindolin-1-one]
7800	2.0	2.2	5200	11000	16000	CO[C@H]1C[C@@](c2cccc(N3Cc4c(cccc4C(F)(F)F)C3=O)c2)(c2nncn2C)C1 [Compound 190, 2-(3-((1s,3s)-3-methoxy-1-(4-methyl-4H-1,2,4-triazol-3-yl)cyclobutyl)phenyl)-4-(trifluoromethyl)isoindolin-1-one]
13	0.7	5.7	0.3	1.7	9.2	C[C@H](CC#N)Nc1cc(C2(c3nncn3C)CC3(COC3)C2)cc(N2Cc3c(cc(CNC4(C)CCC4)cc3C(F)(F)F)C2=O)n1 [Compound 192, (R)-3-((4-(6-(4-methyl-4H-1,2,4-triazol-3-yl)-2-oxaspiro[3.3]heptan-6-yl)-6-(6-(((1-methylcyclobutyl)amino)methyl)-1-oxo-4-(trifluoromethyl)isonidolin-2-yl)pyridin-2-yl)amino)butanenitrile]
36	11	27	12	320	420	Cn1cnnc1C1(c2cc(OC3CCCC3)nc(N3Cc4c(cc(CNC5(C)CCC5)cc4C(F)(F)F)C3=O)c2)CC2(COC2)C1 [Compound 193]
13	2.5	8.3	1.9	16	34	C[C@@H](CC#N)Nc1cc(C2(c3nncn3C)CC3(COC3)C2)cc(N2Cc3c(cc(CNC4(C)CCC4)cc3C(F)(F)F)C2=O)n1 [Compound 194, (S)-3-((4-(6-(4-methyl-4H-1,2,4-triazol-3-yl)-2-oxaspiro[3.3]heptan-6-yl)-6-(6-(((1-methylcyclobutyl)amino)methyl)-1-oxo-4-(trifluoromethyl)isoindolin-2-yl)pyridin-2-yl)amino)butanenitrile]
